Data: patent US20110230481A2, “DERIVATIVES OF TETRABROMOBENZIMIDAZOLE, A PROCESS FOR THE PREPARATION THEREOF, A PHARMACEUTICAL COMPOSITION COMPRISING THE SAME, A METHOD OF USING THE SAME, A METHOD FOR MODULATING OR REGULATING SERINE/THREONINE KINASES, AND SERINE/THREONINE KINASES MODULATING AGENT” (SELVITA S.A., priority 2009, published 2011)

How the values were obtained:
Experiment in all cases: KINOMEscan Max
Format in all cases: binding
KIT = KIT (Homo sapiens, UniProt P10721)
Description: (§1) Kinase panel profiling was performed at Ambit Kinomescan (http://www.ambitbio.com/technology/) using the “KINOMEscan™ Max” assay platform, a high-throughput method for screening small molecule compounds against large numbers of human kinases. KINOMEscan™ is based on a competition binding assay that quantitatively measures the ability of a compound to compete with an immobilized, active-site directed ligand. The assay is performed by combining three components: DNA-tagged kinase; immobilized ligand; and a test compound. The ability of the test compound to compete with the immobilized ligand is measured via quantitative PCR of the DNA tag. For a description of Ambit's assay protocol, see Fabian et al. A small molecule-kinase interaction map for clinical kinase inhibitors. Nat. Biotechnol. 23, 329-336 (2005).

CDK4-cyclinD3 = CDK4-cyclinD3 (Homo sapiens, UniProt P11802)
Chain of CDK4-cyclinD3 (P11802 whole entry): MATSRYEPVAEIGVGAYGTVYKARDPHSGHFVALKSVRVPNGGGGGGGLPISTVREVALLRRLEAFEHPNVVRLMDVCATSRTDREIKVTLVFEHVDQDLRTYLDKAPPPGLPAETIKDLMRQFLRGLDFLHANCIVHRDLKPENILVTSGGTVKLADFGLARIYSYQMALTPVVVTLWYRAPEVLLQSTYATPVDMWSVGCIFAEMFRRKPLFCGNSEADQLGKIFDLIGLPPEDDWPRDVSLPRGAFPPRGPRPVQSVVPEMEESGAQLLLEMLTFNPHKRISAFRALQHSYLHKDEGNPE
Chain of CDK4-cyclinD3 (P30281 whole entry partner): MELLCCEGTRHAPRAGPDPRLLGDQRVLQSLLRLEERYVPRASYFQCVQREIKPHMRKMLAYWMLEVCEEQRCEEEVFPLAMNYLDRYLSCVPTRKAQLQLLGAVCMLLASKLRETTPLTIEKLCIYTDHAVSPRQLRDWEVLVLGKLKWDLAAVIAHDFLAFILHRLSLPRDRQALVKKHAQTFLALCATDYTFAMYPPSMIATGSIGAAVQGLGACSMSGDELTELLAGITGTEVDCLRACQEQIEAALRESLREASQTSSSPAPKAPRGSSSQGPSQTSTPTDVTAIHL
Description: as §1

MYLK = target: T1, MYLK (Homo sapiens, UniProt Q15746)
T1 construct: purchased Ambit (KINOMEscan Max service)
T1 sequence (Q15746 whole entry): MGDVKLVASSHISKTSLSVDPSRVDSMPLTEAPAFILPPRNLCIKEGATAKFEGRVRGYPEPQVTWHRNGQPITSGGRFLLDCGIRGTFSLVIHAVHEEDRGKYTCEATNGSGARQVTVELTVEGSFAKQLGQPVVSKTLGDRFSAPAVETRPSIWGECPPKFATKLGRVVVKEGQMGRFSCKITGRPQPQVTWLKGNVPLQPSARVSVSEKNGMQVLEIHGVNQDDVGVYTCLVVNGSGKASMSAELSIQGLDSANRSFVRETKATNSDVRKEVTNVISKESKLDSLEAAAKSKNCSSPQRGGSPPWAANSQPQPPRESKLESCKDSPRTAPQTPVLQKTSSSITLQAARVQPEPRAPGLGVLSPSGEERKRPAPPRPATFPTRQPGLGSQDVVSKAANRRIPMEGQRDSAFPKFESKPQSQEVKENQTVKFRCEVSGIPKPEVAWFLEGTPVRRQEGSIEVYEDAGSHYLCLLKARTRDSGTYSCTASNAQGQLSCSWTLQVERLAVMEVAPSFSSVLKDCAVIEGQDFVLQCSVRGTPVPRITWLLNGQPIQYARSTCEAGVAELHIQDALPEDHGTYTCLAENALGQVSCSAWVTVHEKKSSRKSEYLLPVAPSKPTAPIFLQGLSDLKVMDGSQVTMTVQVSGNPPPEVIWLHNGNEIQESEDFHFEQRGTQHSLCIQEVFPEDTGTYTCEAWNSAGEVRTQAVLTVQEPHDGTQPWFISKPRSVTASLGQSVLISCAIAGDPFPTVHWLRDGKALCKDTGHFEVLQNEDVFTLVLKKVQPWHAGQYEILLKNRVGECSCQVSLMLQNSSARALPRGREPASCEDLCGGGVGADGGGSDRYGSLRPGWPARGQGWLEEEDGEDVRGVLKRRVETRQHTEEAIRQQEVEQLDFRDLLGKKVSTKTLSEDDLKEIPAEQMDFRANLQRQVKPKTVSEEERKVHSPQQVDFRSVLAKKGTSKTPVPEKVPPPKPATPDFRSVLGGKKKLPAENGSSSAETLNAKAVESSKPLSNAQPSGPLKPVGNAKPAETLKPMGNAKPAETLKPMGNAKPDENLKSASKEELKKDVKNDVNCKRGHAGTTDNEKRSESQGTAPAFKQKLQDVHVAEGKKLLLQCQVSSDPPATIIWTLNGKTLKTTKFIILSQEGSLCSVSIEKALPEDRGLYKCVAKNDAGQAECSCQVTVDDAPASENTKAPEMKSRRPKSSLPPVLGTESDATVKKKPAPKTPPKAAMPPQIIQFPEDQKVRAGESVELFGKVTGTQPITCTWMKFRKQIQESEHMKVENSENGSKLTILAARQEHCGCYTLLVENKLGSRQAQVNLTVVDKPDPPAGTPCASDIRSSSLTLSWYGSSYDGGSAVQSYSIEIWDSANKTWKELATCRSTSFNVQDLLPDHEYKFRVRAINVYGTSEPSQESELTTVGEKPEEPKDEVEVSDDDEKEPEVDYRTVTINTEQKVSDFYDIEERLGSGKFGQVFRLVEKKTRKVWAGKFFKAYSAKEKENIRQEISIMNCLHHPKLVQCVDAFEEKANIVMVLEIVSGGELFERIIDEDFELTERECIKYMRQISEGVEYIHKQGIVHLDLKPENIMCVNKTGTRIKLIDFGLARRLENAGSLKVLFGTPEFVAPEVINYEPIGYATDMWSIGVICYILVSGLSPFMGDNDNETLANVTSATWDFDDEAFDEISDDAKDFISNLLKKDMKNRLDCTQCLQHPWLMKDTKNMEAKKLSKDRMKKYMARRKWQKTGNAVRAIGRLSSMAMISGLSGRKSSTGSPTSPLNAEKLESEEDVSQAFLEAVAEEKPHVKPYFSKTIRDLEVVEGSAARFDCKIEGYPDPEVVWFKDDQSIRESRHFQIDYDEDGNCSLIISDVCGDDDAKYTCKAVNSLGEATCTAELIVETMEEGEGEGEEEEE
Description: as §1

LATS1 = target: T2, LATS1 (Homo sapiens, UniProt O95835)
T2 construct: purchased Ambit Kinomescan (contract panel)
Description: as §1

PRKCE = target: T3, PRKCE (Homo sapiens, UniProt Q02156)
T3 construct: DNA tag (qPCR read-out); purchased Ambit Kinomescan
Description: as §1

ADCK3 = ADCK3 (Homo sapiens, UniProt Q8NI60)
Chain of ADCK3 (Q8NI60 163-647): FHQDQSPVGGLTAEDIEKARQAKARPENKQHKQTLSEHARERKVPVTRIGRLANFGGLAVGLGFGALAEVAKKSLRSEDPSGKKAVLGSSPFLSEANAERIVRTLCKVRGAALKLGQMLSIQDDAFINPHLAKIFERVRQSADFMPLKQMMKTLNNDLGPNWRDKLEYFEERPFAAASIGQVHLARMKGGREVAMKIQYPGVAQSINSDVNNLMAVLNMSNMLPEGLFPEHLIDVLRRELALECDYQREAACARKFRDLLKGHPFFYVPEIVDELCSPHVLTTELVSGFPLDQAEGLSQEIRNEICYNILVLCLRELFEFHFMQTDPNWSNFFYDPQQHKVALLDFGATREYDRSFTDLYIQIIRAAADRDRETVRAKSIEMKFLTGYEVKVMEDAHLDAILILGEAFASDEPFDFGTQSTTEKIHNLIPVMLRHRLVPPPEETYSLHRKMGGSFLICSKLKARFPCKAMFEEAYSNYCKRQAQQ
Description: as §1

ERK5 = target: T4, ERK5 (Homo sapiens, UniProt Q13164)
T4 construct: purchased Ambit Kinomescan (contract panel, KINOMEscan Max)
Description: as §1

ERK2 = target: T5, ERK2 (Homo sapiens, UniProt P28482)
T5 construct: purchased Ambit Kinomescan (contract panel, KINOMEscan Max)
Description: as §1

MRCKB = MRCKB (Homo sapiens, UniProt Q9Y5S2)
Description: as §1

FYN = target: T6, FYN (Homo sapiens, UniProt P06241)
T6 construct: purchased Ambit Kinomescan (contract panel, KINOMEscan Max)
Description: as §1

BMX = target: T7, BMX (Homo sapiens, UniProt P51813)
T7 construct: DNA tag (qPCR read-out)
Description: as §1

EPHB6 = EPHB6 (Homo sapiens, UniProt O15197)
Description: as §1

STK16 = target: T8, STK16 (Homo sapiens, UniProt O75716)
T8 construct: DNA tag (qPCR read-out)
Description: as §1

PKMYT1 = PKMYT1 (Homo sapiens, UniProt Q99640); details: 1 μM
Description: as §1

RET(V804M) = target: T9, RET(V804M) (Homo sapiens, UniProt P07949, V804M)
T9 construct: DNA tag (qPCR read-out)
T9 sequence (P07949 29-1114 V804M): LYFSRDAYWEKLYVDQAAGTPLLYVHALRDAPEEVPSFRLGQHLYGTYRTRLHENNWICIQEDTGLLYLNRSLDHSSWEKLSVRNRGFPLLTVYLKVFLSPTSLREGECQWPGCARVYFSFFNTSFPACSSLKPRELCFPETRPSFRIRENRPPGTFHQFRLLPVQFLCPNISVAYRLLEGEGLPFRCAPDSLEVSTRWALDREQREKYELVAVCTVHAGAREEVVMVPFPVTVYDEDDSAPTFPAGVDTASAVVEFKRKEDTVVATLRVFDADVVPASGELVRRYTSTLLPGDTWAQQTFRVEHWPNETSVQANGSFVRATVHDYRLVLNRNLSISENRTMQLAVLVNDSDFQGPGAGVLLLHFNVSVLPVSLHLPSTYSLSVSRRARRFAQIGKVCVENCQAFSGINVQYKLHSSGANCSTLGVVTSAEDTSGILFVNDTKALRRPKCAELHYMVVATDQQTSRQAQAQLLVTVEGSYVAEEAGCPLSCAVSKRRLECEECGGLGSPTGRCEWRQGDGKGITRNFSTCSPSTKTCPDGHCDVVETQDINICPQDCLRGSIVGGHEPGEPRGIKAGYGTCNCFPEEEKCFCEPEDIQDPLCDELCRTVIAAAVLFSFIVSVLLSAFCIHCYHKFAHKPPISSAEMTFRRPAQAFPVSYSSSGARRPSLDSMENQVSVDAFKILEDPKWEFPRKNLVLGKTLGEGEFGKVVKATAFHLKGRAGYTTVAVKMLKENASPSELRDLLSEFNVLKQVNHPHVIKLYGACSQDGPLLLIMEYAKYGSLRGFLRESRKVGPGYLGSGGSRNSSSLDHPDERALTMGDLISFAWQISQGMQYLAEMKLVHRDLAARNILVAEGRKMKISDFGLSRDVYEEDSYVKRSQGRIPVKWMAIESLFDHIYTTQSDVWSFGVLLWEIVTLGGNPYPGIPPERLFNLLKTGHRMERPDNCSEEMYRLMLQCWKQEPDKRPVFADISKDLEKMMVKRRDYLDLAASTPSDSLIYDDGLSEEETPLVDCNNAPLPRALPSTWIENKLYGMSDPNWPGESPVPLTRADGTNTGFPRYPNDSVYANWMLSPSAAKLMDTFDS
Description: as §1

AURKC = target: T10, AURKC (Homo sapiens, UniProt Q9UQB9)
T10 construct: purchased Ambit (KINOMEscan Max service)
Description: as §1

CAMK1D = target: T11, CAMK1D (Homo sapiens, UniProt Q8IU85)
T11 construct: DNA tag (qPCR label); purchased Ambit Kinomescan (contract screening)
Description: as §1

EPHB3 = target: T12, EPHB3 (Homo sapiens, UniProt P54753)
T12 construct: DNA tag (qPCR read-out)
Description: as §1

PRKD2 = target: T13, PRKD2 (Homo sapiens, UniProt Q9BZL6)
T13 construct: DNA tag (qPCR read-out)
Description: as §1

HIPK1 = target: T14, HIPK1 (Homo sapiens, UniProt Q86Z02)
T14 construct: DNA tag (qPCR read-out); purchased Ambit Kinomescan
Description: as §1

[1] = target: ABL1(T315I)-phosphorylated (Homo sapiens, UniProt P00519, T315I)
Description: as §1

MEK1 = target: T15, MEK1 (Homo sapiens, UniProt Q02750)
T15 construct: purchased Ambit Kinomescan (contract panel)
Description: as §1

NLK = NLK (Homo sapiens, UniProt Q9UBE8)
Description: as §1

TRKB = TRKB (Homo sapiens, UniProt Q16620)
Description: as §1

[2] = target: T16, RSK4(Kin.Dom.1-N-terminal) (Homo sapiens, UniProt Q9UK32); details: 1 μM
T16 construct: RSK4(Kin.Dom.1-N-terminal); DNA tag (qPCR read-out)
T16 sequence (Q9UK32 73-330 limits assumed): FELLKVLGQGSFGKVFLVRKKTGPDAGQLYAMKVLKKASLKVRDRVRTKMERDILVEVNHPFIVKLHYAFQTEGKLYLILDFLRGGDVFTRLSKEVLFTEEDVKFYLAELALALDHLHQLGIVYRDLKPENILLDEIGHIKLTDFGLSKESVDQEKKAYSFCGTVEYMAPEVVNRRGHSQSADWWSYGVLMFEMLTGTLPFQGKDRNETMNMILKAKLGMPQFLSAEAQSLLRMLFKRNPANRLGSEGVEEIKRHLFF
Description: as §1

ACVR2A = target: T17, ACVR2A (Homo sapiens, UniProt P27037)
T17 construct: DNA tag (qPCR label); purchased Ambit Kinomescan (contract screening)
Description: as §1

DCAMKL2 = target: T18, DCAMKL2 (Homo sapiens, UniProt Q8N568)
T18 construct: purchased Ambit (KINOMEscan Max panel service)
Description: as §1

DCAMKL1 = DCAMKL1 (Homo sapiens, UniProt O15075); details: 1 μM
Description: as §1

TLK2 = target: T19, TLK2 (Homo sapiens, UniProt Q86UE8)
T19 construct: purchased Ambit Kinomescan (contract screening service)
Description: as §1

RAF1 = target: T20, RAF1 (Homo sapiens, UniProt P04049)
T20 construct: DNA tag (qPCR read-out)
Description: as §1

NEK11 = target: T21, NEK11 (Homo sapiens, UniProt Q8NG66)
T21 construct: DNA tag (qPCR read-out)
T21 sequence (Q8NG66 whole entry): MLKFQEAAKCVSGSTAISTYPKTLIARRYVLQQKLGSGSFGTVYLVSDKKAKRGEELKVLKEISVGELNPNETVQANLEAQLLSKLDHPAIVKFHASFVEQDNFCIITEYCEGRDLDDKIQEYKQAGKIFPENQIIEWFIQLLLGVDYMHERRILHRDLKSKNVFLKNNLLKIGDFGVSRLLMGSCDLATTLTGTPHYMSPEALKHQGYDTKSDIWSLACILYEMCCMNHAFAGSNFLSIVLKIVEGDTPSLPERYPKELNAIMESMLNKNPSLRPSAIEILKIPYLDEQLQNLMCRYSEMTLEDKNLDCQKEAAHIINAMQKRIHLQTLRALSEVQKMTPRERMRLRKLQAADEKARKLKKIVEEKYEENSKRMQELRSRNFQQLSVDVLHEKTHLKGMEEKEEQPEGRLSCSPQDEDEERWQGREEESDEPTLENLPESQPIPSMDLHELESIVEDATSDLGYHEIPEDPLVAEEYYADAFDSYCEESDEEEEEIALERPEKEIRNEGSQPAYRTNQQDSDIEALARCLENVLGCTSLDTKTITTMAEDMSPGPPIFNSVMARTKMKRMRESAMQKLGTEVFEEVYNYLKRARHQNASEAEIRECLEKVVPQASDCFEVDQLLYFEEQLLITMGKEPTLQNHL
Description: as §1

TNK1 = target: T22, TNK1 (Homo sapiens, UniProt Q13470)
T22 construct: DNA tag (qPCR read-out)
Description: as §1

SRPK1 = target: T23, SRPK1 (Homo sapiens, UniProt Q96SB4)
T23 construct: purchased Ambit (KINOMEscan Max service)
Description: as §1

INSRR = target: T24, INSRR (Homo sapiens, UniProt P14616)
T24 construct: purchased Ambit Kinomescan (contract panel, KINOMEscan Max)
Description: as §1

With `NCCCNc1nc2c(Br)c(Br)c(Br)c(Br)c2[nH]1` [Compound 11, N-(3-aminopropyl)-4,5,6,7-tetrabromo-1H-benzo[d]imidazol-2-amine] the remaining binding at 1 µM (KIT) was 96%, the remaining binding at 1 µM (CDK4-cyclinD3) was 92% and the remaining binding at 1 µM (MYLK) was 58%. The remaining binding at 1 µM (LATS1) was 100%, the remaining binding at 1 µM (PRKCE) was 23% and the remaining binding at 1 µM (ADCK3) was 76%. For the same compound, the remaining binding at 1 µM (ERK5) was 100%, the remaining binding at 1 µM (ERK2) was 100% and the remaining binding at 1 µM (MRCKB) was 100%. For the same compound, the remaining binding at 1 µM (FYN) was 100%, the remaining binding at 1 µM (BMX) was 88% and the remaining binding at 1 µM (EPHB6) was 95%. For the same compound, the remaining binding at 1 µM (STK16) was 87%, the “% binding” value (PKMYT1) was 99% and the remaining binding at 1 µM (RET(V804M)) was 100%. The remaining binding at 1 µM (AURKC) was 83%, the remaining binding at 1 µM (CAMK1D) was 100% and the remaining binding at 1 µM (EPHB3) was 91%. For the same compound, the remaining binding at 1 µM (PRKD2) was 42%, the remaining binding at 1 µM (HIPK1) was 2.8% and the remaining binding at 1 µM [1] was 100%. The remaining binding at 1 µM (MEK1) was 100%, the remaining binding at 1 µM (NLK) was 100% and the remaining binding at 1 µM (TRKB) was 92%. The “% binding” value [2] was 100%, the remaining binding at 1 µM (ACVR2A) was 100% and the remaining binding at 1 µM (DCAMKL2) was 100%. For the same compound, the “% binding” value (DCAMKL1) was 96%, the remaining binding at 1 µM (TLK2) was 100% and the remaining binding at 1 µM (RAF1) was 86%. For the same compound, the remaining binding at 1 µM (NEK11) was 89%, the remaining binding at 1 µM (TNK1) was 90% and the remaining binding at 1 µM (SRPK1) was 67%. For the same compound, the remaining binding at 1 µM (INSRR) was 100%.
